From the COVID Moonshot data (paper PMC7615835)
Several values for one entry are separate records, joined by “and”; a condition that tells them apart may be missing. Identical values can stand only once.

These compounds were tested against SARS-CoV-2 Main Protease (SARS-CoV-2) (UniProt P0DTD1).

| SMILES | IC50 |
| --- | --- |
| O=C(Cc1cccc(Cl)c1)Nc1n[nH]c2ccnc(Br)c12 | > 99.5 µM |
| O=C(Cc1cc(Cl)cc(NCc2cc(Cl)cc(Cl)c2)c1)Nc1cncc2ccccc12 | 1.72 µM |
| COC(=O)[C@H]1CC[C@@H](CNC(C(=O)Nc2cncc3ccccc23)c2cccc(Cl)c2)O1 (stereo in doubt) | 1.72 µM |
| Cc1ccccc1CC(=O)Nc1cncc2ccccc12 | 29.5 µM |
| O=C(Nc1cncc2cc(Cl)ccc12)C12CC(C1)Oc1ccc(Cl)cc12 | > 99.5 µM |
| Cn1cc(NC(=O)Cc2cccc(Cl)c2)c2ccccc2c1=O | > 99.5 µM |
| Cn1ncc2c(NCc3ccc4cccnc4c3)ncnc21 | > 99.5 µM |
| CCOC(=O)[C@H]1CCCN(c2cc(Cl)cc(CC(=O)Nc3cncc4ccccc34)c2)C1 (stereo in doubt) | 2.43 µM |
| O=C(Nc1cncc2ccccc12)C1CN(CC(F)(F)F)Cc2ccc(Cl)cc21 (stereo unspecified) | 3.41 µM |
| COc1ccc2cncc(N3CCC4(CN(S(=O)(=O)CC5(C#N)CC5)Cc5ccc(Cl)cc54)C3=O)c2c1 (stereo unspecified) | 0.215 µM |
| N#CCCN1CCN(C(=O)CC2(C(=O)Nc3cncc4ccccc34)CCOc3ccc(Cl)cc32)CC1 (stereo unspecified) | 21.3 µM |
| CS(=O)(=O)c1ccc(N2CCNCC2)cc1 | > 99.5 µM |
| CC(C)(C)c1ccc(N(C(=O)c2ccco2)C(C(=O)NCCN2CCOCC2)c2cccnc2)cc1 (stereo unspecified) | 2.19 µM |
| CCOc1ccccc1CNc1cc(Cl)cc(CC(=O)Nc2cncc3ccccc23)c1 | 2.07 µM |
| CC(C)OCc1cc(C(=O)N2CCC(C3CCNC3)CC2)ccc1F (stereo unspecified) | > 99.5 µM |
| O=C(Cc1cc(Cl)cc(Nc2ccc([N+](=O)[O-])cc2Cl)c1)Nc1cncc2ccccc12 | 2.18 µM |
| O=C(Cc1cc(Cl)cc(Nc2ncccc2OCc2ccccc2)c1)Nc1cncc2ccccc12 | 2 µM |
| CCN(CC)S(=O)(=O)c1ccc(Nc2cc(Cl)cc(CC(=O)Nc3cncc4ccccc34)c2)cc1 | 2.15 µM |
| CCOC(=O)c1cc(-c2cc(Cl)cc(CC(=O)Nc3cnccc3C)c2)n[nH]1 | > 99.5 µM |
| O=C(Cc1cc(Cl)cc(Cl)c1)Nc1cncc2ccccc12 | 1.37 µM |
| Cc1ccccc1C(C)NC(C)C(=O)Nc1ccc2[nH]c(=O)[nH]c2c1 (stereo unspecified) | > 99.5 µM |
| Cc1cc2c(cc1C)C(C(=O)N1CCCCC1c1cn[nH]c1)CO2 (stereo unspecified) | > 99.5 µM |
| O=C(Cc1cccc(Cl)c1)Nc1cnccc1C(=O)O | > 99.5 µM |
| COc1ccccc1CN(C(=O)c1cocn1)C(C(=O)NCCc1cccc(F)c1)c1cccnc1 (stereo unspecified) | > 99.5 µM |
| Cc1ccc(Nc2ccccc2C(=O)N2CCC(C3CCNC3)CC2)cc1 (stereo unspecified) | > 99.5 µM |
| Cc1cc(=O)oc2cc(Nc3cc(Cl)cc(CC(=O)Nc4cncc5ccccc45)c3)ccc12 | 2.12 µM |

| SMILES | IC50 |
| --- | --- |
| CCc1cc(F)ccc1-c1cc(Cl)cc(CC(=O)Nc2cnccc2C)c1 | 31.6 µM |
| COCc1cc(Cl)cc(CN2CCN(C(=O)CCl)CC2)c1 | 4.77 µM |
| Clc1ccc2c(c1)C1(CCO2)CCN(c2cncc3ccccc23)C1 (stereo unspecified) | > 99.5 µM |
| O=C(Nc1n[nH]c2ccnc(Br)c12)C1CCOc2ccc(Cl)cc21 (stereo unspecified) | > 99.5 µM |
| O=C(CCl)N1CCCN(S(=O)(=O)c2cc(F)ccc2F)CC1 | 12.1 µM |
| O=C(Nc1cccc(C(F)(F)F)c1)Nc1ccccc1Sc1ncc([N+](=O)[O-])s1 | 6.26 µM |
| CC(NC(=O)CN)(C(=O)Nc1cncc2ccccc12)c1ccc(Cl)c(Cl)c1 (stereo unspecified) | 6.21 µM and 1.84 µM |
| CCOc1c(Cl)cccc1CC(=O)Nc1cncc2ccccc12 | 6.96 µM |
| COC1CN(S(=O)(=O)N2Cc3ccc(Cl)cc3C3(CCN(c4cncc5ccccc45)C3=O)C2)C1 (stereo unspecified) | 0.224 µM |
| OCCn1c(CSc2nc3ccccc3o2)nc2ccc(Cl)cc21 | 0.327 µM |
| O=C(Nc1cc(=O)[nH]c2ccccc12)C1CCOc2ccc(Cl)cc21 (stereo unspecified) | > 99.5 µM |
| Cc1ccncc1NC(=O)Cc1cc(Cl)cc(OCc2nn(C(=O)OC(C)(C)C)c3ccccc23)c1 | > 99.5 µM |
| C[C@H]1CN(c2cc(Cl)cc(CC(=O)Nc3cncc4ccccc34)c2)CCN1C(=O)OC(C)(C)C (stereo in doubt) | 2.61 µM |
| C/C=C/C=C/C(=O)N1CC=C(c2c[nH]c3ncccc23)CC1 | > 99.5 µM |
| CC(C)(C)c1ccc(N(C(=O)c2cn[nH]c2)C(C(=O)NCCc2cccc(F)c2)c2cccnc2)cc1 (stereo unspecified) | 5.83 µM |
| O=C(Nc1ccncc1)[C@@H](c1ccccc1)N1Cc2ccccc2C1=O (stereo in doubt) | > 99.5 µM |
| O=C(Nc1cncc2c1CCCC2)[C@@H]1CNS(=O)(=O)c2ccc(Cl)cc21 (stereo in doubt) | 0.205 µM |
| O=C(Nc1cncc2[nH]c(=O)[nH]c12)C1CCOc2ccc(Cl)cc21 (stereo unspecified) | 62.8 µM |
| NC(=O)C1Cc2ccccc2CN1CC(=O)N1CCN(c2ncccn2)CC1 (stereo unspecified) | > 99.5 µM |
| CC1CN(C(=O)CC2(C(=O)Nc3cncc4ccccc34)CCOc3ccc(Cl)cc32)CCN1CCO (stereo unspecified) | > 99.5 µM |
| Cc1noc2ncc(CNc3ccc(-c4nnnn4C)cc3)cc12 | > 99.5 µM |
| Cc1cc(C(=O)Nc2cnc3nccn3c2)nn1-c1ccc(F)cc1 | > 99.5 µM |
| CC(C)(C)c1ccc(N(C(=O)c2cc(=O)n3ncnc3[nH]2)C(C(=O)NCCc2cccc(F)c2)c2cccnc2)cc1 (stereo unspecified) | > 99.5 µM |
| CC(C)(C)c1cnc(N(C(=O)c2ccco2)C(C(=O)NCCc2cccc(F)c2)c2cccnc2)s1 (stereo unspecified) | 3.94 µM |
| O=C(Cc1cc(Cl)cc(NCCCN2CCS(=O)(=O)CC2)c1)Nc1cncc2ccccc12 | 1.92 µM |
